Consider 45 compounds from ChEMBL document CHEMBL2062363, “Ligand-based design, in silico ADME-Tox filtering, synthesis and biological evaluation to discover new soluble 1,4-DHP-based CFTR activators” (Eur J Med Chem, 2012).

Data set [1] in a line: Potentiation of forskolin-induced CFTR deltaF508 mutant expressed in FRT cells co-expressing halide-sensitive YFP-H148Q/I152L by fluorescence quenching assay. Type of data set: cell-based, Homo sapiens.
Data set [2] is described as follows: Induction of nitric oxide release in phosphate buffer at pH 7.4 at 10^-4 M after 1 hr by Griess reaction presence of L-cysteine. To be noted: pH 7.4, 1 h, 100 µM. Type of data set: physicochemical. In general terms: The Griess reaction detects nitrite, a stable product of nitric oxide.
Data set [3] has as its target L-type voltage-dependent Ca2+ channel (Homo sapiens, UniProt O60840+Q01668+Q13698+Q13936). Briefly: Inhibition of L-type voltage-dependent Ca2+ channel at 1 uM.

Consider `COC(=O)C1=C(C)NC(C)=C(C(=O)OCCCO[N+](=O)[O-])C1c1cccc([N+](=O)[O-])c1` (stereo not given), for which the “pEC50 for potentiation of CFTR deltaF508 (activation potency)” value (“pEC50 for potentiation of CFTR deltaF508” below) in data set [1] was 5.88. Further, in data set [2], the Activity is reported as < 0.5%.

As for `CC1=C(C(=O)OCCCO[N+](=O)[O-])C(c2cccc([N+](=O)[O-])c2)C([N+](=O)[O-])=C(C)N1` (racemic), the “pEC50 for potentiation of CFTR deltaF508” value in data set [1] is given as 5.07. For the same compound, in data set [2], the Activity is reported as < 0.5%.

For orientation: inhibition means the percentage by which the read-out fell short of the control. `C=CCOC(=O)C1=C(C)NC(SC)=C(C#N)C1c1ccc(Cl)cc1` (stereo not given) yielded an inhibition at 1 µM in data set [3] of 36.7%. Moreover, in data set [1], the “pEC50 for potentiation of CFTR deltaF508” value is reported as 6.26.

In the case of `COC(=O)C1=C(C)NC(C)=C(C(=O)OC)C1c1ccccc1`, the inhibition at 1 µM in data set [3] is 70.5%. Besides, in data set [1], the “pEC50 for potentiation of CFTR deltaF508” value worked out at 5.77.

With `CCOC(=O)C1=C(C)NC(C)=C(C(=O)OC)C1c1ccco1` (stereo not given), the inhibition at 1 µM in data set [3] stood at 86.9%. The “pEC50 for potentiation of CFTR deltaF508” value in data set [1] is 5.85.

In turn, `CC1=C(C(=O)OCc2ccccc2)C(c2ccc(Cl)cc2)C(C(=O)OCc2ccccc2)=C(C)N1` had an inhibition at 1 µM in data set [3] of 92.9%. For the same compound, in data set [1], the “pEC50 for potentiation of CFTR deltaF508” value was 5.23.

Consider `CCOC(=O)C1=C(C)NC(C)=C(C(=O)OC)C1c1ccc(Cl)cc1` (stereo not given), for which the inhibition at 1 µM in data set [3] was 100%. For the same compound, the “pEC50 for potentiation of CFTR deltaF508” value in data set [1] came to 6.51.

Take `C=CCOC(=O)C1=C(C)NC(C)=C(C(=O)OCC=C)C1c1ccc(OC)c(OC)c1`: at 1 µM the inhibition in data set [3] was 28.7%. Besides, the “pEC50 for potentiation of CFTR deltaF508” value in data set [1] was 5.55.

For `C=CCOC(=O)C1=C(C)NC(C)=C(C(=O)OCC=C)C1c1cccc(Oc2ccccc2)c1`, testing at 1 µM in data set [3] gave an inhibition of 48.2%. Also, the “pEC50 for potentiation of CFTR deltaF508” value in data set [1] stood at 6.52.

Turning to `C=CCOC(=O)C1=C(C)NC(C)=C(C(=O)OCC=C)C1c1ccc(OC)cc1`, the inhibition at 1 µM in data set [3] turned out to be 37.2%. Further, the “pEC50 for potentiation of CFTR deltaF508” value in data set [1] is 6.3.

In data set [3], `COc1ccc(C2C(C(=O)OC(C)C)=C(C)NC(C)=C2C(=O)OC(C)C)cc1OC` came in with an inhibition at 1 µM of 22.1%. Also, in data set [1], the “pEC50 for potentiation of CFTR deltaF508” value is recorded as 5.76.

`COCCOC(=O)C1=C(C)NC(C)=C(C(=O)OCCOC)C1c1cccc([N+](=O)[O-])c1` registered an inhibition at 1 µM in data set [3] of 100%. Besides, in data set [1], the “pEC50 for potentiation of CFTR deltaF508” value worked out at 5.93.

As to `C=CCOC(=O)C1=C(C)NC(C)=C(C(=O)OCC=C)C1c1cccc(Cl)c1`, in data set [3], the inhibition at 1 µM came out at 100%. In addition, the “pEC50 for potentiation of CFTR deltaF508” value in data set [1] was 6.82.

For the compound `C=CCOC(=O)C1=C(C)NC(C)=C(C(=O)OCC=C)C1c1ccc(Cl)cc1Cl`, the inhibition at 1 µM in data set [3] was 81%. In addition, the “pEC50 for potentiation of CFTR deltaF508” value in data set [1] is listed as 6.4.

Take `CCOC(=O)C1=C(C)NC(C)=C(C(=O)OCC)C1c1ccc(N(CC)CC)cc1`: the inhibition at 1 µM in data set [3] is 34.7%. Moreover, the “pEC50 for potentiation of CFTR deltaF508” value in data set [1] amounted to 5.59.

For `COC(=O)C1=C(C)N=C(C)/C(=C(/O)OC)C1c1cccc(Cl)c1` (stereo not given), the inhibition at 1 µM in data set [3] came to 100%. Further, in data set [1], the “pEC50 for potentiation of CFTR deltaF508” value is given as 6.22.

The compound `C=CCOC(=O)C1=C(C)NC(C)=C(C(=O)OCC=C)C1/C=C/c1ccccc1OC` showed an inhibition at 1 µM in data set [3] of 18%. The “pEC50 for potentiation of CFTR deltaF508” value in data set [1] amounted to 6.49.

Take `COC(=O)C1=C(C)N(C)C(C)=C(C(=O)OC)C1c1ccc(-c2ccccc2)cc1`: testing at 1 µM in data set [3] gave an inhibition of 23.5%. In addition, the “pEC50 for potentiation of CFTR deltaF508” value in data set [1] was found to be 5.63.

Compound `C=CCOC(=O)C1=C(C)NC(C)=C(C(=O)OCC=C)C1c1ccc(C(=O)OC)cc1` displayed an inhibition at 1 µM in data set [3] of 7.8%. The “pEC50 for potentiation of CFTR deltaF508” value in data set [1] stood at 5.52.

`COC(=O)C1=C(C)N(C)C(C)=C(C(=O)OC)C1c1cccc(Cl)c1` came in with an inhibition at 1 µM in data set [3] of 40.2%. Moreover, the “pEC50 for potentiation of CFTR deltaF508” value in data set [1] is on record as 4.89.

`COC(=O)C1=C(C)NC(C)=C(C(=O)OC)C1c1cccc(F)c1` gave an inhibition at 1 µM in data set [3] of 91.9%. Also, the “pEC50 for potentiation of CFTR deltaF508” value in data set [1] is 6.21.

`CCOC(=O)C1=C(C)NC(C)=C(C(=O)OCC)C1c1ccc(Br)cc1`: in data set [3], the inhibition at 1 µM turned out to be 27.1%. For the same compound, in data set [1], the “pEC50 for potentiation of CFTR deltaF508” value was determined as 6.3.

Regarding `CCOC(=O)C1=C(C)NC(C)=C(C(=O)OCC)C1c1ccccc1`, the inhibition at 1 µM in data set [3] turned out to be 100%. In data set [1], the “pEC50 for potentiation of CFTR deltaF508” value is recorded as 6.4.

`CC1=C(C(=O)OC(C)C)C(c2ccc(C)cc2)C(C(=O)OC(C)C)=C(C)N1`: in data set [3], the inhibition at 1 µM is 47%. For the same compound, the “pEC50 for potentiation of CFTR deltaF508” value in data set [1] came to 6.27.

Regarding `CCOC(=O)C1=C(C)NC(C)=C(C(=O)OCC)C1c1c(Cl)cccc1Cl`, in data set [3], testing at 1 µM gave an inhibition of 100%. Also, in data set [1], the “pEC50 for potentiation of CFTR deltaF508” value turned out to be 6.52.

Consider `COC(=O)C1=C(C)NC(C)=C(C(=O)OC)C1c1ccc(-c2ccc(Cl)c(Cl)c2)o1`, for which, in data set [3], the inhibition at 1 µM is 8.3%. Further, the “pEC50 for potentiation of CFTR deltaF508” value in data set [1] is 5.51.

Take `CCOC(=O)C1=C(C)NC(C)=C(C(=O)OCC)C1c1ccc([N+](=O)[O-])cc1`: at 1 µM the inhibition in data set [3] was 47.4%. In data set [1], the “pEC50 for potentiation of CFTR deltaF508” value stood at 5.71.

`CCOC(=O)C1=C(C)NC(C)=C(C(=O)OCC)C1c1cccc(Oc2ccccc2)c1` yielded an inhibition at 1 µM in data set [3] of 43.2%. For the same compound, the “pEC50 for potentiation of CFTR deltaF508” value in data set [1] came out at 6.59.

`COC(=O)C1=C(C)NC(C)=C(C(=O)OC)C1c1cccc(Br)c1` had an inhibition at 1 µM in data set [3] of 100%. For the same compound, the “pEC50 for potentiation of CFTR deltaF508” value in data set [1] stood at 6.46.

In turn, `CCOC(=O)C1=C(C)NC(C)=C(C(=O)OCC)C1c1ccc(Cl)c(Cl)c1` returned an inhibition at 1 µM in data set [3] of 100%. Besides, the “pEC50 for potentiation of CFTR deltaF508” value in data set [1] is on record as 6.1.

`CCOC(=O)C1=C(C)NC(C)=C(C(=O)OCC)C1c1ccc(C(C)C)cc1` yielded an inhibition at 1 µM in data set [3] of 30.8%. For the same compound, the “pEC50 for potentiation of CFTR deltaF508” value in data set [1] stood at 6.22.

In the case of `COC(=O)C1=C(C)N(C)C(C)=C(C(=O)OC)C1c1ccc(Cl)c(Cl)c1`, the inhibition at 1 µM in data set [3] turned out to be 45.6%. In data set [1], the “pEC50 for potentiation of CFTR deltaF508” value was found to be 4.89.

Turning to `COC(=O)C1=C(C)NC(C)=C(C(=O)OC)C1c1ccccc1F`, testing at 1 µM in data set [3] gave an inhibition of 95.9%. The “pEC50 for potentiation of CFTR deltaF508” value in data set [1] stood at 6.26.

With `CCOC(=O)C1=C(C)NC(SC)=C(C#N)C1c1ccccc1` (stereo not given), the inhibition at 1 µM in data set [3] was found to be 23.4%. In addition, the “pEC50 for potentiation of CFTR deltaF508” value in data set [1] is 5.3.

As for `COC(=O)C1=C(C)NC(C)=C(C(=O)OC)C1c1ccc(I)cc1`, at 1 µM the inhibition in data set [3] was 12.3%. Moreover, in data set [1], the “pEC50 for potentiation of CFTR deltaF508” value is reported as 6.34.

In data set [3], `CCOC(=O)C1=C(C)NC(C)=C(C(=O)OCC)C1c1ccc(N(C)C)cc1` came in with an inhibition at 1 µM of 30.4%. Further, the “pEC50 for potentiation of CFTR deltaF508” value in data set [1] worked out at 6.1.

In data set [3], `COC(=O)C1=C(C)NC(C)=C(C(=O)OC)C1c1ccc(Cl)cc1` returned an inhibition at 1 µM of 92.6%. For the same compound, in data set [1], the “pEC50 for potentiation of CFTR deltaF508” value was 5.96.

On to `COC(=O)C1=C(C)NC(C)=C(C(=O)OC)C1c1ccc(Cl)c(Cl)c1`, for which, in data set [3], the inhibition at 1 µM was 100%. Besides, the “pEC50 for potentiation of CFTR deltaF508” value in data set [1] is recorded as 5.77.

In data set [3], `COc1cc(C2C(C(=O)OCc3ccccc3)=C(C)NC(C)=C2C(=O)OCc2ccccc2)ccc1O` displayed an inhibition at 1 µM of 44.9%. Further, in data set [1], the “pEC50 for potentiation of CFTR deltaF508” value was 5.28.

As for `COC(=O)C1=C(C)N(C)C(C)=C(C(=O)OC)C1c1cccc(Cl)c1Cl`, the inhibition at 1 µM in data set [3] was found to be 42.2%. Moreover, in data set [1], the “pEC50 for potentiation of CFTR deltaF508” value was found to be 5.23.

`COC(=O)C1=C(C)NC(C)=C(C(=O)OC)C1c1ccc(C(C)(C)C)cc1` yielded an inhibition at 1 µM in data set [3] of 20.9%. Further, in data set [1], the “pEC50 for potentiation of CFTR deltaF508” value came to 5.52.

With `COC(=O)C1=C(C)NC(C)=C(C(=O)OCCCBr)C1c1cccc([N+](=O)[O-])c1` (stereo not given), the inhibition at 1 µM in data set [3] amounted to 100%. In addition, the “pEC50 for potentiation of CFTR deltaF508” value in data set [1] was 6.06.

`CCOC(=O)C1=C(C)NC(C)=C(C(=O)OCC)C1c1ccc(OC)cc1OC` yielded an inhibition at 1 µM in data set [3] of 41.8%. Besides, the “pEC50 for potentiation of CFTR deltaF508” value in data set [1] was determined as 6.09.

Turning to `CCOC(=O)C1=C(C)NC(C)=C(C(=O)OCC)C1c1cc(Cl)cc(Cl)c1OC`, at 1 µM the inhibition in data set [3] was 100%. Moreover, in data set [1], the “pEC50 for potentiation of CFTR deltaF508” value is recorded as 6.51.

Consider `COC(=O)C1=C(C)NC(C)=C(C(=O)OC)C1c1ccc(OC)c([N+](=O)[O-])c1`, for which 1 µM produced 15.6% inhibition in data set [3]. Besides, the “pEC50 for potentiation of CFTR deltaF508” value in data set [1] turned out to be 4.93.
